Test results: ChEMBL document CHEMBL1201862, “PubChem BioAssay data set” (2004)
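Results reflect a 48-hour exposure of cells in 96-well plates to compound at five concentrations. At the GI50, growth is halved.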 The source made the active and inactive calls. No stated cut-off is given here; in the data, active = GI50 up to about 1.1 µM and inactive = higher.

Experiments:
Assay in all cases: NCI anticancer screen, dose series, 48 h
SF-268 = test system: SF-268
EKVX = test system: EKVX
MDA-MB-231 = test system: MDA-MB-231
OVCAR-5 = test system: OVCAR-5
SN12C = test system: SN12C
UO-31 = test system: UO-31
SK-MEL-28 = test system: SK-MEL-28
SNB-19 = test system: SNB-19
NCI/ADR-RES = test system: NCI/ADR-RES
MOLT-4 = test system: MOLT-4
HCT-116 = test system: HCT-116
NCI-H226 = test system: NCI-H226
ACHN = test system: ACHN
UACC-62 = test system: UACC-62
SR = test system: SR
OVCAR-8 = test system: OVCAR-8
SK-MEL-5 = test system: SK-MEL-5
RXF 393 = test system: RXF 393
T47D = test system: T47D
NCI-H23 = test system: NCI-H23
SK-MEL-2 = test system: SK-MEL-2
DU-145 = test system: DU-145
A549 = test system: A549
SF-295 = test system: SF-295
RPMI-8226 = test system: RPMI-8226
IGROV-1 = test system: IGROV-1
CAKI-1 = test system: CAKI-1
Hs-578T = test system: Hs-578T
TK-10 = test system: TK-10
A498 = test system: A498
SW-620 = test system: SW-620
786-0 = test system: 786-0
Malme-3M = test system: Malme-3M
COLO 205 = test system: COLO 205
HT-29 = test system: HT-29
LOX IMVI = test system: LOX IMVI
HOP-92 = test system: HOP-92
SK-OV-3 = test system: SK-OV-3
SNB-75 = test system: SNB-75
KM12 = test system: KM12
PC-3 = test system: PC-3
U-251 = test system: U-251
UACC-257 = test system: UACC-257
K562 = test system: K562
CCRF-CEM = test system: CCRF-CEM
M14 = test system: M14
NCI-H522 = test system: NCI-H522
NCI-H460 = test system: NCI-H460
MDA-MB-435 = test system: MDA-MB-435
BT-549 = test system: BT-549
HCC 2998 = test system: HCC 2998
OVCAR-3 = test system: OVCAR-3
HOP-62 = test system: HOP-62
MDA-N = test system: MDA-N
HCT-15 = test system: HCT-15
OVCAR-4 = test system: OVCAR-4
SF-539 = test system: SF-539
MCF7 = test system: MCF7
HL-60 = test system: HL-60

Measured: GI50

O=C1Nc2ccccc2C1S(=O)(=O)c1ccccc1 (centres undefined)
inactive: SF-268 > 100 µM | EKVX > 100 µM | MDA-MB-231 > 100 µM | OVCAR-5 > 100 µM | SN12C > 100 µM | UO-31 > 100 µM | SK-MEL-28 > 100 µM | SNB-19 > 100 µM | NCI/ADR-RES > 100 µM | MOLT-4 > 100 µM | HCT-116 > 100 µM | NCI-H226 > 100 µM | ACHN > 100 µM | UACC-62 > 100 µM | SR > 100 µM | OVCAR-8 > 100 µM | SK-MEL-5 > 100 µM | RXF 393 > 100 µM | T47D > 100 µM | NCI-H23 > 100 µM | SK-MEL-2 > 100 µM | DU-145 > 100 µM | A549 > 100 µM | SF-295 > 100 µM | RPMI-8226 > 100 µM | IGROV-1 > 100 µM | CAKI-1 > 100 µM | Hs-578T > 100 µM | TK-10 > 100 µM | A498 > 100 µM | SW-620 > 100 µM | 786-0 > 100 µM | Malme-3M > 100 µM | COLO 205 > 100 µM | HT-29 > 100 µM | LOX IMVI > 100 µM | HOP-92 > 100 µM | SK-OV-3 > 100 µM | SNB-75 > 100 µM | KM12 > 100 µM | PC-3 > 100 µM | U-251 > 100 µM | UACC-257 > 100 µM | K562 > 100 µM | CCRF-CEM > 100 µM | M14 > 100 µM | NCI-H522 > 100 µM | NCI-H460 > 100 µM | MDA-MB-435 > 100 µM | BT-549 > 100 µM | HCC 2998 > 100 µM | OVCAR-3 > 100 µM | HOP-62 > 100 µM | MDA-N > 100 µM | OVCAR-4 > 100 µM
> 100 µM: HCT-15

O=[N+]([O-])C(/C(Cl)=C(/Cl)N1CCOCC1)=C1\NCCO1
inactive: SF-268 > 100 µM | EKVX > 100 µM | MDA-MB-231 > 100 µM | SF-539 > 100 µM | OVCAR-5 > 100 µM | SN12C > 100 µM | UO-31 > 100 µM | SK-MEL-28 > 100 µM | SNB-19 > 100 µM | NCI/ADR-RES > 100 µM | MOLT-4 > 100 µM | HCT-116 > 100 µM | NCI-H226 > 100 µM | ACHN > 100 µM | UACC-62 > 100 µM | OVCAR-8 > 100 µM | T47D > 100 µM | NCI-H23 > 100 µM | SK-MEL-2 > 100 µM | DU-145 > 100 µM | A549 > 100 µM | SF-295 > 100 µM | RPMI-8226 > 100 µM | CAKI-1 > 100 µM | Hs-578T > 100 µM | A498 > 100 µM | SW-620 > 100 µM | 786-0 > 100 µM | Malme-3M > 100 µM | COLO 205 > 100 µM | HT-29 > 100 µM | SK-OV-3 > 100 µM | SNB-75 > 100 µM | KM12 > 100 µM | PC-3 > 100 µM | U-251 > 100 µM | UACC-257 > 100 µM | CCRF-CEM > 100 µM | M14 > 100 µM | NCI-H460 > 100 µM | MCF7 > 100 µM | MDA-MB-435 > 100 µM | BT-549 > 100 µM | HCC 2998 > 100 µM | OVCAR-3 > 100 µM | HOP-62 > 100 µM | MDA-N > 100 µM | OVCAR-4 > 100 µM
> 100 µM: HCT-15

Cc1ccc(C)c2c1NC(=O)/C2=N\Nc1ccccc1[N+](=O)[O-]
> 100 µM: HCT-15
inactive: SF-268 > 100 µM | EKVX > 100 µM | MDA-MB-231 > 100 µM | SF-539 98.2 µM | OVCAR-5 > 100 µM | SN12C > 100 µM | UO-31 > 100 µM | HL-60 > 100 µM | SK-MEL-28 > 100 µM | SNB-19 > 100 µM | MOLT-4 > 100 µM | HCT-116 > 100 µM | ACHN > 100 µM | UACC-62 > 100 µM | SR 1.61 µM | SK-MEL-5 > 100 µM | RXF 393 > 100 µM | T47D > 100 µM | NCI-H23 > 100 µM | SK-MEL-2 78 µM | DU-145 > 100 µM | A549 > 100 µM | SF-295 > 100 µM | RPMI-8226 > 100 µM | IGROV-1 10.7 µM | CAKI-1 > 100 µM | Hs-578T 35.7 µM | TK-10 > 100 µM | A498 > 100 µM | SW-620 > 100 µM | 786-0 61.5 µM | COLO 205 > 100 µM | LOX IMVI > 100 µM | HOP-92 40.7 µM | SK-OV-3 > 100 µM | SNB-75 > 100 µM | KM12 > 100 µM | PC-3 > 100 µM | U-251 85.5 µM | UACC-257 > 100 µM | K562 74.1 µM | CCRF-CEM > 100 µM | M14 > 100 µM | NCI-H522 > 100 µM | NCI-H460 > 100 µM | MCF7 > 100 µM | MDA-MB-435 > 100 µM | BT-549 > 100 µM | HCC 2998 > 100 µM | OVCAR-3 > 100 µM | HOP-62 55.8 µM | MDA-N > 100 µM | OVCAR-4 38 µM
